Results: patent US7718677B2, “Methods and compositions for reduction of side effects of therapeutic treatments” (priority 2007, dated 2010)
Values joined by “and” are separate entries in the source; they are usually repeats but may differ in a detail not shown here. Equal entries are not always repeated.

How the values were obtained:
[1] = system: MPTP-lesioned squirrel monkeys; assay: Parkinsonism rating on or off levodopa in MPTP-lesioned monkeys; assay type: in vivo, Saimiri sciureus; settings: for Parkinson Ratings Expt 1 / Parkinson Ratings Expt 2 (crossover): individual animals, scale 0-28; for Parkinson Ratings Mean ± SE (n): n=5
Method: 1-Methyl-4-phenyl-1,2,3,6-tetrahydropyridine (MPTP) administration: Prior to lesioning, the animals were allowed to acclimate to the colony and rated for parkinsonism as described (Langston et al. Ann Neurol. 2000; 47:S79-89). All values were within the normal range. The monkeys were then injected subcutaneously with 2.0 mg/kg MPTP (Sigma, St-Louis, Mo.) dissolved in saline. The animals were rated for parkinsonism 3-4 weeks after MPTP administration. The disability scores ranged from 0 (normal) to 28 for a severely parkinsonian animal. Animals were assessed for 1) spatial hypokinesia (reduction in use of the available cage space), 2) body bradykinesia (increased slowness in body movement), 3) left and 4) right manual dexterity, 5) balance, 6) freezing and 7) action tremor. If they were not parkinsonian, MPTP injection (1.0-2.0 mg/kg) was repeated from 2-5 times for total doses of 3.5 to 13.5 mg/kg. Despite multiple MPTP dosing, two of the animals were not stably parkinsonian.
Data analyses: The levodopa treatment protocol used in the present study involved a 5-day-on/2-day-off schedule. Parkinsonian ratings were done on Monday and Friday of each week, with the score averaged over the two days. Dyskinesias ratings were determined by averaging the scores on Wednesday and Thursday of each week. All values are expressed as the mean±SE of the indicated number of animals. Results were compared using paired t-tests or analysis of variance (ANOVA) followed by Bonferroni multiple comparison post hoc test, using Prism® program (GraphPad Software, Inc, San Diego, Calif.). A level of 0.05 was considered significant.
White bars indicate no nicotine treatment and black bars indicate nicotine treatment. Parkinsonism was evaluated immediately before the afternoon L-dopa dose and 1.5 to 2 hours after L-dopa treatment, when a maximal antiparkinsonian effect is anticipated. Two of the seven animals in the study were not parkinsonian, and therefore were not included in this analysis. Error bars are the means±standard error of five animals before and after crossover of nicotine treatment. **p<0.01, as compared with the same group with no L-dopa treatment by a Mann-Withney test.

[2] = system: corticostriatal slices from nonhuman primates; settings: nicotine treatment
Source text: Brain slices at the level of the globus pallidus have generally been used as they incorporate many of the structures present in basal ganglia motor circuits. This includes glutamatergic inputs from the cortex that densely innervate striatal medium spiny GABAergic neurons and are a determinant of neuronal activity in striatal projection neurons. Synaptic plasticity, defined as long-lasting changes in the efficacy of synaptic transmission, has been identified in corticostriatal slices in vitro in the form of long-term potentiation (LTP), long-term depression (LTD) and depotentiation. In slices from unlesioned rats, high-frequency stimulation (HFS) of glutamatergic corticostriatal afferent fibers can induce both LTD and LTP in striatal medium spiny neurons, most likely due to a release of striatal glutamate which triggers dopamine release. Stimulation of both D1 and D2 receptors is required for the induction of LTD, whereas these two receptor subtypes play opposing roles in LTP.

[3] = system: 6-hydroxydopamine-lesioned rats
Method: Animal model—6-Hydroxydopamine lesioning. We used the 6-hydroxydopamine lesioned rat model of nigrostriatal damage described by Cenci and colleagues (Cenci et al., 1998 Eur J Neurosci 10:2694-2706; Cenci et al., 2002 Nat Rev Neurosci 3:574-579). Adult male Sprague-Dawley rats were anesthetized with isofluorane, and then placed in a Kopf stereotaxic instrument. Burr holes were drilled through the skull and an intracranial injection of 6 μg 6-hydroxydopamine (2 μg/μl) stereotaxically injected at two separate sites into the right ascending dopamine fiber bundle, for a total of 12 μg 6-hydroxydopamine. The coordinates for the position of these two lesion sites were as follows relative to the Bregma and dural surface: (1) anteroposterior, −4.4; lateral, 1.2; ventral, 7.8; tooth bar at −2.4; (2) anteroposterior, −4.0; lateral, 0.75; ventral, 8.0; tooth bar at +3.4 (Cenci et al., 1998 Eur J Neurosci 10:2694-2706; Cenci et al., 2002 Nat Rev Neurosci 3:574-579). All procedures conformed to the NIH Guide for the Care and Use of Laboratory Animals and were approved by the Institutional Animal Care and Use Committee.
Nicotine treatment regimen. The rats were first given a drinking solution containing 1% saccharin for 3-4 days (FIG. 8). Nicotine was then added at a concentration of 25 μg/ml, and increased to 50 μg/ml 3-4 days later. Animals were maintained on this dose for 3 weeks. L-dopa treatment was then initiated, as below, with the nicotine dosing continued.
L-dopa treatment and behavioral testing for AIMs. Rats received single daily intraperitoneal injections of 8 mg/kg L-dopa methyl ester plus 15 mg/kg benserazide for 3 weeks (FIG. 8), as described (Cenci et al., 1998 Eur J Neurosci 10:2694-2706; Cenci et al., 2002 Nat Rev Neurosci 3:574-579). Abnormal involuntary movements (AIMs) after daily LDOPA injection were then quantified using the scale developed by Cenci and colleagues (Cenci et al., 1998 Eur J Neurosci 10:2694-2706; Cenci et al., 2002 Nat Rev Neurosci 3:574-579), as previously done in our laboratory (Cox et al., 2007, Exp. Neurol.). Rats were placed in a Rotomax test chamber. They were then scored on a scale from 0 to 4: 1=occasional; 2=frequent; 3=continuous but interrupted by sensory distraction; 4=continuous, severe, not interrupted by sensory distraction. The rating categories were as follows; (1) axial dystonia, consisting of twisting posturing of the head and neck; (2) orolingual dyskinesia, with stereotyped jaw movements and contralateral tongue protrusion and (3) forelimb movements, with dystonic movements of the contralateral forelimb. They were also assessed for locomotive dyskinesia, or increased locomotion with contralateral side bias; however, these scores were not included because the interpretation of this motor response is not clear (Papa et al., 1994 Brain Res 662; 69-74; Cenci et al., 1998 Eur J Neurosci 10:2694-2706).
Locomotive dyskinesias are distinct from turning behavior described above. […] The maximum possible score in each session was thus 108 (maximum score per observation=12; number of observations per session=9). Rats were evaluated by two raters, one blinded to treatment.
Data analyses. Statistical significance was determined using Student's t-tests or ANOVA followed by Bonferroni post hoc tests, as appropriate. Data are mean±SEM. A p level of 0.05 was considered significant.

[4] = on levodopa treatment, 1.5-2 hours after dosing

CN1CCCC1c1cccnc1 (centres unmarked) [Nicotine, S-3-(1-methyl-2-pyrrolidinyl)pyridine] was tested. Which “Parkinson Ratings Expt 1” value ([1]; no levodopa treatment) did it give?
Its value is 5.2 and 6.6.

What about the “Parkinson Ratings Expt 2 (crossover)” value ([1]; no levodopa treatment) of the same compound?
Its value is 4.1 and 6.4 and 5.9.

And the “Parkinson Ratings Mean ± SE (n)” value ([1]; no levodopa treatment)?
Its value is 5.6 ± 0.5 (5).

And the “Parkinson Ratings Expt 1” value [1, 4]?
Its value is 1.7 and 1.5.

What about the “Parkinson Ratings Expt 2 (crossover)” value [1, 4] of the same compound?
The value was 0.8 (2×) and 0.4.

What about the “Parkinson Ratings Mean ± SE (n)” value [1, 4] of the same compound?
The value was 1.0 ± 0.2 (5).

And the effect on parkinsonism ([1]; on or off levodopa treatment)?
Its effect on parkinsonism is “did not affect”.

What about the “long-term depression (LTD) lost as a result of nigrostriatal damage” value [2] of the same compound?
Its value is “restores”.

And the “total AIMs” value ([3]; 25 μg/ml nicotine in the drinking water, two and four weeks after dose lowering, pooled)?
Its value is “reduction in AIMs was sustained”.

And the “total AIM scores” value ([3]; 50 μg/ml nicotine in drinking water, after 3 weeks of L-dopa 8 mg/kg ip, entire 3-hour period)?
The value was “reduction”.

And the oral dyskinesias ([3]; 3 and 6-8 week time points)?
Its oral dyskinesias is “trend for a decrease”.

What about the forelimb dyskinesias ([3]; 3 and 6-8 week time points, both doses of nicotine (50 and 25 μg/ml)) of the same compound?
Its forelimb dyskinesias is “significant decreases”.

What about the axial dyskinesias ([3]; 6-8 week time point) of the same compound?
The axial dyskinesias was “significant decreases”.

What about the “persistence of the decline in AIMs with L-dopa treatment” value ([3]; 25 and 50 μg/ml in the drinking water) of the same compound?
Its value is “at least 2 months”.
